What was measured:
TC-1 cells = details: RAG1-/- mice, 2.5 mg CTX i.p. day 24
Method: Specific pathogen-free 5-week-old female C57BL/6 mice were purchased from Charles River (L'Arbresle, France) and were kept in the Pasteur Institute animal facilities under pathogen-free conditions with water and food ad libitum. C57BL/6-RAG1^−/− mice were obtained from the Jackson Laboratory, USA. Experiments involving animals were conducted according to the institutional guidelines for animal care.
Tumor cells lines (5×10^5 TC-1 cells or 4×10^6 EL4-E7 cells) were inoculated into the shaved left back of C57BL/6 mice in 200 μl volume of PBS.

[1] = test system: TC-1 cells expressing HPV16-E6 and HPV16-E7; test: TC-1 tumor model in C57BL/6 mice (tumor growth, eradication, survival); type: in vivo; details: for Effect on tumor growth: large TC-1 tumors, treated day 24/25
Method: TC-1 cells expressing HPV16-E6 and HPV16-E7 proteins derived from primary mouse lung epithelial cells were obtained from the American Type Culture Collection (LGC Promochem, Molsheim, France) (14). EL4-E7 cells, a mouse lymphoma expressing HPV16-E7 (15). Cells were maintained in RPMI 1640 with GlutaMAX supplemented with 10% heat-inactivated fetal calf serum, 100 units/ml penicillin, 100 μg/ml streptomycin, 0.4 mg/ml geneticin and 5×10^−5 mol/l 2-mercaptoethanol (Life Technologies, Cergy-Pontoise, France).
Thirty μg of CpG ODNs or pU were diluted in 50 μl of Optimen medium (Gibco, Grand Island, N.Y., USA) and mixed with 60 μg of DOTAP (Roche, Mannheim, Germany) diluted in 100 μl of Optimen. The rest of the reagents were diluted in PBS before injection. Cyclophosphamide (CTX) (Sigma, Steinheim, Germany) and doxorubicin (DOX) (Calbiochem, La Jolla, Calif., USA) were diluted respectively in PBS and in sterile water before injection. The different antigenic formulations and adjuvants were injected simultaneously except chemotherapeutic agents that were given 24 h before vaccine. Intravenous administrations were performed by retroorbital injection in a volume of 200 μl, intratumoral administrations were done by injection in a volume of 50 μl and subcutaneous administration were performed in 200 μl.
Tumor growth data were analyzed by non-linear mixed effect models using Monolix software (http://www.math.u-psud.fr/˜lavielle/monolix/). Mean diameters of tumors over time were fitted using the model described in (17) and treatments were compared using the Likelihood Ratio test. Kaplan-Meier plots were used to analyzed survival, and a log rank test was used to examine statistical significance of differences in the survival curves using Prism software (GraphPad Software, Inc. San Diego, USA). Data from in vivo CTL and tetramer staining were compared by ANOVA followed by Dunnett posttest. p values less than 0.05 were considered to be statistically significant.

[2] = test system: regulatory T cells, myeloid cells, NK cells, tumor-specific CD8+ T cells; test: Flow cytometric analysis of immune cells in spleen, draining lymph nodes and tumor after treatment; type: in vivo, mice
Method: FIG. 9. Changes in immune cells after tritherapy on day 25. […] Groups of mice were sacrificed before treatment (day 0), 24 hour after CTX alone (day 1) or on days 4, 7 or 11 after tritherapy administration. Spleen, tumor draining lymph nodes and tumor were excised, ground to prepare the cell suspensions, stained and analyzed by flow cytometry. Pooled data of two experiments are shown (n=4-6 mice). Bars represent mean values and the error bars correspond to standard error of the mean. *<0.05 **<0.01. A) Percentage of CD4^+ cells that express CD25 and FoxP3. B) Percentage of CD4^+ cells that are CD25^− and FoxP3^+. C) Percentage of CD4^+ cells that express FoxP3. D) Percentage of CD8^+ cells that are tetramer^+ and CD44^+. E) Percentage of CD11c+ cells. F) Percentage of CD11 b^+ cells. G) Percentage of GR1+ cells. H) Percentage of CD11 b^+ GR1+ positive cells.
FIG. 11. Phenotype of myeloid cells induced by tritherapy and by tumor growth. […] Tritherapy treated mice received on day 24, 2.5 mg CTX i.p and 24 h later, 50 μg CyaA-E7 and 30 μg CpG-B/DOTAP. PBS treated mice received 200 μl of PBS on day 25. […] Spleens were excised, ground to prepare the cell suspensions, stained and analyzed by flow cytometry. […]
FACScalibur (Becton Dickinson, Franklin Lakes, N.J., USA) was used for flow cytometry and events were analyzed with CELLQuest software (Becton Dickinson, Franklin Lakes, N.J., USA).

Compound: O=P1(N(CCCl)CCCl)NCCCO1 (stereo not shown) [CTX, Cyclophosphamide]
- Tumor growth delay (TC-1 cells): not observed
- Effect on tumor growth [1]: significantly delayed tumor growth
- Effect on tumor growth ([1]; listed as cyclophosphamide): transiently control tumor growth
- Induction of tumor regression / complete eradication ([1]; without CyaA-E7, treated day 24/25): not able to induce the complete eradication
- Percentage of CD25+FoxP3+/CD4+ in tumor-infiltrated lymphocytes ([2]; four days after administration, from around 50%): below 30%
- Lymphodepletion ([2]; spleen and lymph node, TC-1 tumor-bearing mice): transient lymphodepletion in spleen and lymph node that reverted by day 7

Compound: polyinosinic-polycytidylic acid [PIC]
- Effect on tumor growth [1]: none of these TLR ligands administered alone had any effect on the tumor growth

Reference: patent US20100150999A1, “THERAPY OF CANCER BASED ON TARGETING ADAPTIVE, INNATE AND/OR […] OF THE IMMUNE RESPONSE” (priority 2006, published 2010)
